Experiments:
[1] = system: colitis model administered with dextran sulfate sodium (DSS); test: DSS colitis model mouse, length of the large intestine; assay type: in vivo; details: 2.5 w/v % DSS drinking water, 50 mg/kg intraperitoneally every 24 hr, day 8, vs 0.5% MC, FIG. 3
Experimental: Colitis model administered with dextran sulfate sodium (DSS) (manufactured by FUJIFILM Wako Pure Chemical Corporation) was produced as described below. The length of the large intestine is used as a morphological parameter in the evaluation of colitis, and the large intestine shortens according to the degree of inflammation. Therefore, the anti-inflammatory effect of the compound was evaluated by comparing the length of the large intestine.
Compound K-1:J-1 was prepared as a 0.5 w/v % methylcellulose aqueous solution (0.5% MC, manufactured by FUJIFILM Wako Pure Chemical Corporation) at 5 mg/mL and intraperitoneally administered at 50 mg/kg per administration. 0.5% MC was administered to the negative control.
As the mouse, male C57BL/6NCrl, 6-week-old, was purchased from CHARLES RIVER LABORATORIES JAPAN, INC. As drinking water, distilled water or a 2.5 w/v % DSS aqueous solution was freely given. The DSS drinking start date was set as day 1, and the water was given until day 8. Compound K-1:J-1 was intraperitoneally administered at 50 mg/kg every 24 hr from day 1. On day 8, the mouse was dissected, the large intestine was isolated and the length of the large intestine was measured. Conducted in 4 cases in each group.

[2] = system: mouse partial liver resection model; test: Liver weight increase in mouse partial liver resection model; assay type: in vivo; details: 10 mg/kg intraperitoneally 4 times every 24 hr, about 30% of the liver removed, FIG. 2
Experimental: A partial liver resection model in which the mouse liver was partially resected was prepared as described below, and the liver weight increasing effect of the specific compound was evaluated by comparing the liver weight immediately after the resection with the liver weight 3 days after the resection.
A 0.5 w/v % methylcellulose aqueous solution (0.5% MC, manufactured by FUJIFILM Wako Pure Chemical Corporation) and k-1:B-1, k-1:J-1 were evaluated. k-1:B-1 and k-1:J-1 were suspended in 0.5% MC, and prepared at a final concentration of 1 mg/mL.
Mice, BALB/cAnNCrlCrlj, 5-week-old, male, were purchased from Charles River Laboratories, Japan. In terms of the 0.5% MC administration control group, 0.5% MC 10 mL/kg was administered intraperitoneally once, and 24 hr later, the entire liver was isolated and the liver weight was measured (n=5). […] After that, the abdomen was closed, and 24 hr after the final administration, the entire liver was removed and the liver weight was measured (n=4). In terms of the k-1:B-1 or k-1:J-1 administration-control group, k-1:B-1 or k-1:J-1 10 mg/kg, 10 mL/kg, was intraperitoneally administered once, and 24 hr later, the entire liver was isolated and the liver weight was measured (n=5). […] After that, the abdomen was closed, and 24 hr after the final administration, the entire liver was removed and the liver weight was measured (n=5).

SMILES: CC/C(=N\NC(=O)NCc1cccc(O)c1)c1ccc(O)c(C)c1O [k-1:J-1]
- length of the large intestine [1]: shortening of the large intestine was suppressed more
- liver weight ratio after partial liver resection [2]: promoting recovery of the liver weight after excision

SMILES: CC/C(=N\NC(=O)C(C)Nc1ccccc1)c1ccc(O)c(C)c1O (stereo not drawn) [k-1:B-1]
- liver weight ratio after partial liver resection [2]: promoting recovery of the liver weight after excision

From US20210253518A1, “KINASE INHIBITOR” (NISSAN CHEMICAL CORPORATION, priority 2018, published 2021)
